Earlier results on 1 compound are cited in patent US20070020197A1, “Preparation of pharmaceutical compositions containing nanoparticles” (WARNER-LAMBERT COMPANY LLC, priority 2004, published 2007).

The conditions of this series: mean particle size reduced from 4.15 μm to 0.45 μm.

With `O=C(NC(=O)c1ccccc1[N+](=O)[O-])Nc1ccc(Oc2ncc(Br)cn2)c(Cl)c1` [HO-221], the bioavailability change entry is given as “doubling”.
